According to patent US20220055989A1, “CONDENSED PYRROLES AS NOVEL BROMODOMAIN INHIBITORS” (ALBERT LUDWING UNIVERSITÄT FREIBURG, priority 2018, published 2022):
pKd: −log10 of the molar value.

How the values were obtained:
CREBBP = target: T1, CREBBP (Homo sapiens, UniProt Q92793); experiment: BROMOscan Kd determination CREBBP; assay type: binding
T1 construct: T7 phage strains displaying bromodomains were grown; host or cells: T7 phage in E. coli derived from BL21
Procedure: (§1) Bromodomain profiling was carried out on the basis of BROMOscan™. This platform accounted for the indirect determination of the dissociation constants between 19 bromodomains and the compound of formula (13), by binding competition against a reference immobilized ligand. Compounds that bind the bromodomain prevent its binding to the immobilized ligand thus reducing the amount of protein captured. […] Hits are identified by measuring the amount of bromodomain captured in test versus control samples. Bromodomain assays for Kd determination: T7 phage strains displaying bromodomains were grown in parallel in 24-well blocks in an E. coli host derived from the BL21 strain. E. coli were grown to log-phase and infected with T7 phage from a frozen stock (multiplicity of infection=0.4) and incubated with shaking at 32° C. until lysis (90-150 minutes). The lysates were centrifuged (5,000×g) and filtered (0.2 μm) to remove cell debris. […] Kds were determined using an 11-point 3-fold compound dilution series with one DMSO control point. […] The bromodomain concentration in the eluates was measured by qPCR. […] Most Kds were determined using a compound top concentration=10,000 nM. […] Binding Constants (Kds): Binding constants (Kds) were calculated with a standard dose-response curve using the Hill equation: The Hill Slope was set to −1. […]

TRIM24(PHD, Bromo) = target: T2, TRIM24(PHD, Bromo) (Homo sapiens, UniProt O15164); experiment: BROMOscan Kd determination TRIM24(PHD, Bromo.); assay type: binding
T2 construct: T7 phage strains displaying bromodomains were grown in parallel; host or cells: T7 phage grown in E. coli host derived from BL21
Procedure: as §1

FALZ = target: T3, FALZ (Homo sapiens, UniProt Q12830); experiment: BROMOscan Kd determination FALZ; assay type: binding
T3 construct: T7 phage strains displaying bromodomains were grown in parallel; host or cells: T7 phage grown in E. coli host derived from BL21
Procedure: as §1

BRDT(1, 2) = target: T4, BRDT(1, 2) (Homo sapiens, UniProt Q58F21); experiment: BROMOscan Kd determination BRDT(1, 2); assay type: binding
T4 construct: T7 phage strains displaying bromodomains were grown; host or cells: T7 phage in E. coli derived from BL21
Procedure: as §1

BRD2(1, 2) = target: T5, BRD2(1, 2) (Homo sapiens, UniProt P25440); experiment: BROMOscan Kd determination BRD2(1, 2); assay type: binding
T5 construct: T7 phage strains displaying bromodomains were grown in parallel; made in house; host or cells: T7 phage grown in an E. coli host derived from the BL21 strain
Procedure: as §1

TRIM24 (Bromo.) = target: T6, TRIM24 (Bromo.) (Homo sapiens, UniProt O15164); experiment: BROMOscan Kd determination TRIM24 (Bromo.); assay type: binding
T6 construct: T7 phage strains displaying bromodomains were grown in parallel; host or cells: T7 phage grown in E. coli host derived from BL21
Procedure: as §1

ATAD2B = target: T7, ATAD2B (Homo sapiens, UniProt Q9ULI0); experiment: BROMOscan Kd determination ATAD2B; assay type: binding
T7 construct: T7 phage strains displaying bromodomains were grown in parallel; made in house; host or cells: T7 phage grown in an E. coli host derived from the BL21 strain
Procedure: as §1

SMARCA2 = target: T8, SMARCA2 (Homo sapiens, UniProt P51531); experiment: Bromodomain assay % Ctrl determination SMARCA2; conditions: lower numbers indicate a stronger binding
T8 construct: T7 phage strains displaying bromodomains were grown in parallel; host or cells: T7 phage grown in E. coli host derived from BL21
Procedure: (§2) Compounds that bind the bromodomain prevent its binding to the immobilized ligand thus reducing the amount of protein captured. […] Hits are identified by measuring the amount of bromodomain captured in test versus control samples. Bromodomain assays for % Ctrl determination: T7 phage strains displaying bromodomains were grown in parallel in 24-well blocks in an E. coli host derived from the BL21 strain. E. coli were grown to log-phase and infected with T7 phage from a frozen stock (multiplicity of infection=0.4) and incubated with shaking at 32° C. until lysis (90-150 minutes). The lysates were centrifuged (5,000×g) and filtered (0.2 μm) to remove cell debris. […] The liganded beads were blocked with excess biotin and washed with blocking buffer (SeaBlock (Pierce), 1% BSA, 0.05% Tween 20, 1 mM DTT) to remove unbound ligand and to reduce non-specific phage binding. […] Test compounds were prepared as 1000× stocks in 100% DMSO and subsequently diluted 1:25 in monoethylene glycol (MEG). The compounds were then diluted directly into the assays such that the final concentrations of DMSO and MEG were 0.1% and 2.4%, respectively. All reactions were performed in polypropylene 384-well plates in a final volume of 0.02 ml. […] The bromodomain concentration in the eluates was measured by qPCR. […]

TRIM33(PHD, Bromo) = experiment: Bromodomain assay % Ctrl determination TRIM33(PHD, Bromo); conditions: lower numbers indicate a stronger binding
Procedure: as §2

BRD4(1) = target: T9, BRD4(1) (Homo sapiens, UniProt O60885); experiment: Bromodomain assay % Ctrl determination BRD4(1); conditions: lower numbers indicate a stronger binding
T9 construct: BRD4-BD1 was expressed and purified as described previously; made in house
Procedure: as §2

BRD7 = target: T10, BRD7 (Homo sapiens, UniProt Q9NPI1); experiment: Bromodomain assay % Ctrl determination BRD7; conditions: lower numbers indicate a stronger binding
T10 construct: T7 phage strains displaying bromodomains were grown; host or cells: T7 phage in E. coli derived from BL21
T10 sequence (Q9NPI1 131-235 limits assumed): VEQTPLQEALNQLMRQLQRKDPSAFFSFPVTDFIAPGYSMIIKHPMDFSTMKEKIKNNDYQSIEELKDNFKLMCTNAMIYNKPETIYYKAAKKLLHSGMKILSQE
Procedure: as §2

T6 sequence (O15164 899-1004 limits assumed): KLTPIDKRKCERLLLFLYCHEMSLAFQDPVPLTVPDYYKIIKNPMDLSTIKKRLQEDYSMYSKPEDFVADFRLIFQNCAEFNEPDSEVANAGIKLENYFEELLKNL
T2 sequence (O15164 824-1006 limits assumed): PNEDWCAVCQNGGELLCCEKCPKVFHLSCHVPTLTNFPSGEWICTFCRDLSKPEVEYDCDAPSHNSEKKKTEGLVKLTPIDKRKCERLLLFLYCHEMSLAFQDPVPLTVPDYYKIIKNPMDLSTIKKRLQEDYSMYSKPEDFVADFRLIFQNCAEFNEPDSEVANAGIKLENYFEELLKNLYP
T8 sequence (P51531 1378-1506 limits assumed): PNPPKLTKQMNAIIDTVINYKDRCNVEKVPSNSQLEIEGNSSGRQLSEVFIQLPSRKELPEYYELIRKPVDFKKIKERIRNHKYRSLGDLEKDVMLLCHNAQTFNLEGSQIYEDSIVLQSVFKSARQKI
T7 sequence (Q9ULI0 951-1066 limits assumed): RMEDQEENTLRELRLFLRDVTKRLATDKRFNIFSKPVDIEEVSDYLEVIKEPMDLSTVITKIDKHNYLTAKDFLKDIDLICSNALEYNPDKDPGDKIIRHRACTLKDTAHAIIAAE
T5 sequence (P25440 71-455 limits assumed): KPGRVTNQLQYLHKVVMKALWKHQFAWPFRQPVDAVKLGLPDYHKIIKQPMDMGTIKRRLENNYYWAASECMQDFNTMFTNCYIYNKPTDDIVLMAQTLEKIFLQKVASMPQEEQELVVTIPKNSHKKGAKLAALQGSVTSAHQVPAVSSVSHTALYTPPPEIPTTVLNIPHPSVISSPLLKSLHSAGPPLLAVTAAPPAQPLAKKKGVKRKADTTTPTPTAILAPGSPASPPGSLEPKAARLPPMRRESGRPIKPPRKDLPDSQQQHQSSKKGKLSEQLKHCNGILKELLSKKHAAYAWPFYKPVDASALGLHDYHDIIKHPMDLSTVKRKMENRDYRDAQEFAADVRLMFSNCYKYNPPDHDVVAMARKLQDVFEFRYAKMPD
T1 sequence (Q92793 1085-1192 limits assumed): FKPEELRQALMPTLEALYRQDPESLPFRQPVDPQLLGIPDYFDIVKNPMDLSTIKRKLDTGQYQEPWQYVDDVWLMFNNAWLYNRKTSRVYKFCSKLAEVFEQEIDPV

pKd (CREBBP)	pKd (TRIM24(PHD, Bromo))	pKd (FALZ)	pKd (BRDT(1, 2))	pKd (BRD2(1, 2))	pKd (TRIM24 (Bromo.))	pKd (ATAD2B)	% Ctrl @ 10 000 nM SMARCA2 (SMARCA2) [% Ctrl]	% Ctrl @ 10 000 nM BRD4(1) (BRD4(1)) [% Ctrl]	% Ctrl @ 10 000 nM BRD7 (BRD7) [% Ctrl]	SMILES	% Ctrl @ 10 000 nM TRIM33(PHD, Bromo) (TRIM33(PHD, Bromo)) [% Ctrl]
6.38	5.28	5.59	6.38	7.08	5.85	< 5.00	–	–	–	Cc1[nH]c(-c2cc(N)ccc2Cl)c2c1C(=O)CCCC2 [Compound 23]	–
–	–	–	–	–	–	–	83	0	0	COc1ccc(S(=O)(=O)N2CCOCC2)cc1NC(=O)c1[nH]c(C)c2c1CCCCC2=O [Compound 13, N-(2-methoxy-5-(morpholinosulfonyl)phenyl)-3-methyl-4-oxo-2,4,5,6,7,8-hexahydrocyclohepta[c]pyrrole-1-carboxamide]	60
